For the assay, the target named is T1, human recombinant LPA2 expressed in CHO cells (Homo sapiens, UniProt Q9HBW0).
T1 construct: expressed in transfected cells; host or cells: CHO cells (CHO-hLPA2 cell line)
Description: FLIPR calcium mobilization assay, LPA2 antagonism in CHO-hLPA2 cells. It is filed as cell-based. The conditions noted are these: CHO-hLPA2 cells, inhibition of LPA EC80 Ca2+ response, 30 min pre-incubation; read-out: LPA2 IC50. The procedure, abridged: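 Antagonist potency from four-parameter logistic fit (pIC50) of % inhibition of peak Ca2+ signal evoked by an EC80 LPA challenge. Before challenge, hLPA2-CHO cells were dye-loaded (5 μM Cal-520 AM, 2.5 mM probenecid, pH 7.4 HEPES buffer, 30 min, 37° C) and exposed 30 min to compound at 11 concentrations, 0.5% DMSO final.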
In general terms: A change in cytosolic calcium serves as a functional read-out for many receptors and channels.

A word on the IC50: it is the concentration needed to halve the response being measured.

T1 sequence (Q9HBW0 whole entry): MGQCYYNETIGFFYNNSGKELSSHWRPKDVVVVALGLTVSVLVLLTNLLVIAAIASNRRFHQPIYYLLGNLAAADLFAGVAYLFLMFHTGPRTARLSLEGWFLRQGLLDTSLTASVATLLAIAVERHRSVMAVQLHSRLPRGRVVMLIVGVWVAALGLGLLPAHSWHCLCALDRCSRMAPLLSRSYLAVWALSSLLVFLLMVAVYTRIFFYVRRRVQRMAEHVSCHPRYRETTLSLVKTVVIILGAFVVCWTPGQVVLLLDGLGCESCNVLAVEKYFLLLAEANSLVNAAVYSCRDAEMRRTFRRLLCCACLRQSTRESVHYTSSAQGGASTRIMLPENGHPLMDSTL

`COC(=O)Nc1nc(C)c(S(=O)(=O)N2CCN(C[C@H](C)Nc3ncnc4c(-c5cccc(C)n5)cccc34)CC2)s1` [Example 71, methyl N-[4-methyl-5-({4-[(2S)-2-{[8-(6-methylpyridin-2-yl)quinazolin-4-yl]amino}propyl]piperazin-1-yl}sulfonyl)-1,3-thiazol-2-yl]carbamate]: the IC50 is < 10 nM.
Next, `COC(=O)Nc1nc(C)c(S(=O)(=O)N2CCN(C[C@H](C)Nc3ncnc4c(-c5cncc(NC=O)c5)cccc34)CC2)s1` [Example 72, methyl N-[5-({4-[(2S)-2-{[8-(5-formamidopyridin-3-yl)quinazolin-4-yl]amino}propyl]piperazin-1-yl}sulfonyl)-4-methyl-1,3-thiazol-2-yl]carbamate]: < 10 nM; `COC(=O)Nc1nc(C)c(S(=O)(=O)N2CCN(C[C@H](C)Nc3ncnc4c(-c5ccnc(C#N)n5)cccc34)CC2)s1` [Example 73, methyl N-[5-({4-[(2S)-2-{[8-(2-cyanopyrimidin-4-yl)quinazolin-4-yl]amino}propyl]piperazin-1-yl}sulfonyl)-4-methyl-1,3-thiazol-2-yl]carbamate]: 10 to 100 nM; `COC(=O)Nc1nc(C)c(S(=O)(=O)N2CCN(C[C@H](C)Nc3ncnc4c(-c5ccc(F)c(Cl)n5)cccc34)CC2)s1` [Example 74, methyl N-[5-({4-[(2S)-2-{[8-(6-chloro-5-fluoropyridin-2-yl)quinazolin-4-yl]amino}propyl]piperazin-1-yl}sulfonyl)-4-methyl-1,3-thiazol-2-yl]carbamate]: 10 to 100 nM.
In the case of `COC(=O)Nc1ncc(S(=O)(=O)N2CCN(C[C@H](C)Nc3ncnc4c(-c5cccc(CN(C)C)c5)cccc34)CC2)s1` [Example 75, methyl N-[5-({4-[(2S)-2-[(8-{3-[(dimethylamino)methyl]phenyl}quinazolin-4-yl)amino]propyl]piperazin-1-yl}sulfonyl)-1,3-thiazol-2-yl]carbamate] it was < 10 nM.
Next, `C[C@@H](CN1CCN(S(=O)(=O)c2ccc3c(c2)CC(=O)N3)CC1)Nc1ncnc2c(-c3cccc(CN(C)C)c3)cccc12` [Example 76, 5-({4-[(2S)-2-[(8-{3-[(dimethylamino)methyl]phenyl}quinazolin-4-yl)amino]propyl]piperazin-1-yl}sulfonyl)-2,3-dihydro-1H-indol-2-one]: < 10 nM; `C[C@@H](CN1CCN(S(=O)(=O)c2ccc3[nH]c(=O)[nH]c(=O)c3c2)CC1)Nc1ncnc2c(-c3cccc(CN(C)C)c3)cccc12` [Example 77, 6-({4-[(2S)-2-[(8-{3-[(dimethylamino)methyl]phenyl}quinazolin-4-yl)amino]propyl]piperazin-1-yl}sulfonyl)-1,2,3,4-tetrahydroquinazoline-2,4-dione]: < 10 nM; `Cc1ccc(-c2cccc3c(N[C@@H](C)CN4CCN(S(=O)(=O)c5ccc6[nH]c(=O)sc6c5)CC4)ncnc23)cn1` [Example 78, 6-({4-[(2S)-2-{[8-(6-methylpyridin-3-yl)quinazolin-4-yl]amino}propyl]piperazin-1-yl}sulfonyl)-2,3-dihydro-1,3-benzothiazol-2-one]: 10 to 100 nM.
For the compound `C[C@@H](CN1CCN(S(=O)(=O)c2ccc3[nH]c(=O)sc3c2)CC1)Nc1ncnc2c(-c3cn(C)nc3C(F)(F)F)cccc12` [Example 79, 6-({4-[(2S)-2-({8-[1-methyl-3-(trifluoromethyl)-1H-pyrazol-4-yl]quinazolin-4-yl}amino)propyl]piperazin-1-yl}sulfonyl)-2,3-dihydro-1,3-benzothiazol-2-one], the IC50 is < 10 nM.
In the case of `COC(=O)Nc1nc(C)c(S(=O)(=O)N2CCN(C[C@H](C)Nc3ncnc4c(-c5ccc6c(c5)CN(C)C6)cccc34)CC2)s1` [Example 80, methyl N-[4-methyl-5-({4-[(2S)-2-{[8-(2-methyl-2,3-dihydro-1H-isoindol-5-yl)quinazolin-4-yl]amino}propyl]piperazin-1-yl}sulfonyl)-1,3-thiazol-2-yl]carbamate] it was < 10 nM; in that of `COCC(=O)Nc1ncc(S(=O)(=O)N2CCN(C[C@H](C)Nc3ncnc4c(-c5cccc(CN(C)C)c5)cccc34)CC2)s1` [Example 81, N-[5-({4-[(2S)-2-[(8-{3-[(dimethylamino)methyl]phenyl}quinazolin-4-yl)amino]propyl]piperazin-1-yl}sulfonyl)-1,3-thiazol-2-yl]-2-methoxyacetamide], < 10 nM; in that of `COC(=O)Nc1nc(C)c(S(=O)(=O)N2CCN(C[C@H](C)Nc3ncnc4c(-c5c[nH]nc5C(F)(F)F)cccc34)CC2)s1` [Example 82, methyl N-[4-methyl-5-({4-[(2S)-2-({8-[3-(trifluoromethyl)-1H-pyrazol-4-yl]quinazolin-4-yl}amino)propyl]piperazin-1-yl}sulfonyl)-1,3-thiazol-2-yl]carbamate], < 10 nM.
`Cc1nc2ccc(S(=O)(=O)N3CCN(C[C@H](C)Nc4ncnc5c(-c6cccnc6)cccc45)CC3)cc2s1` [Example 83, N-[(2S)-1-{4-[(2-methyl-1,3-benzothiazol-6-yl)sulfonyl]piperazin-1-yl}propan-2-yl]-8-(pyridin-3-yl)quinazolin-4-amine]: the concentration for half-maximal inhibition (IC50) was < 10 nM.
Next, `Cc1nc2ccc(S(=O)(=O)N3CCN(C[C@H](C)Nc4ncnc5c(-c6cccc(CN(C)C)c6)cccc45)CC3)cc2s1` [Example 84, 8-{3-[(dimethylamino)methyl]phenyl}-N-[(2S)-1-{4-[(2-methyl-1,3-benzothiazol-6-yl)sulfonyl]piperazin-1-yl}propan-2-yl]quinazolin-4-amine]: < 10 nM; `Cc1ccc(-c2cccc3c(N[C@@H](C)CN4CCN(S(=O)(=O)c5ccc(-c6cc(C)no6)s5)CC4)ncnc23)cn1` [Example 85, N-[(2S)-1-(4-{[5-(3-methyl-1,2-oxazol-5-yl)thiophen-2-yl]sulfonyl}piperazin-1-yl)propan-2-yl]-8-(6-methylpyridin-3-yl)quinazolin-4-amine]: < 10 nM.
Next, `Cc1nc(NC(=O)CN(C)C)sc1S(=O)(=O)N1CCN(C[C@H](C)Nc2ncnc3c(-c4cn(C)nc4C(F)(F)F)cccc23)CC1` [Example 86, 2-(dimethylamino)-N-[4-methyl-5-({4-[(2S)-2-({8-[1-methyl-3-(trifluoromethyl)-1H-pyrazol-4-yl]quinazolin-4-yl}amino)propyl]piperazin-1-yl}sulfonyl)-1,3-thiazol-2-yl]acetamide]: < 10 nM; `COC(=O)Nc1nc(C)c(S(=O)(=O)N2CCN(C[C@H](C)Nc3ncnc4c(-c5cncc(C=O)c5)cccc34)CC2)s1` [Example 87, methyl N-[5-({4-[(2S)-2-{[8-(5-formylpyridin-3-yl)quinazolin-4-yl]amino}propyl]piperazin-1-yl}sulfonyl)-4-methyl-1,3-thiazol-2-yl]carbamate]: < 10 nM; `C[C@@H](CN1CCN(S(=O)(=O)c2ccccc2)CC1)Nc1ncnc2c(-c3cn(C)nc3C(F)(F)F)cccc12` [Example 88, N-[(2S)-1-[4-(benzenesulfonyl)piperazin-1-yl]propan-2-yl]-8-[1-methyl-3-(trifluoromethyl)-1H-pyrazol-4-yl]quinazolin-4-amine]: 10 to 100 nM.
For `COC(=O)Nc1nc(C)c(S(=O)(=O)N2CCN(C[C@H](C)Nc3ncnc4c(-c5cccc(CN(C)C)c5C)cccc34)CC2)s1` [Example 89, methyl N-[5-({4-[(2S)-2-[(8-{3-[(dimethylamino)methyl]-2-methylphenyl}quinazolin-4-yl)amino]propyl]piperazin-1-yl}sulfonyl)-4-methyl-1,3-thiazol-2-yl]carbamate], the IC50 is < 10 nM.
Regarding `COC(=O)Nc1nc(C)c(S(=O)(=O)N2CCN(C[C@H](C)Nc3ncnc4c(-c5cccc(CN(C)C)c5F)cccc34)CC2)s1` [Example 90, methyl N-[5-({4-[(2S)-2-[(8-{3-[(dimethylamino)methyl]-2-fluorophenyl}quinazolin-4-yl)amino]propyl]piperazin-1-yl}sulfonyl)-4-methyl-1,3-thiazol-2-yl]carbamate], the IC50 is < 10 nM.
With `COC(=O)Nc1nc(C)c(S(=O)(=O)N2CCN(C[C@H](C)Nc3ncnc4c(-c5ccc(C)c(CN(C)C)c5)cccc34)CC2)s1` [Example 91, methyl N-[5-({4-[(2S)-2-[(8-{3-[(dimethylamino)methyl]-4-methylphenyl}quinazolin-4-yl)amino]propyl]piperazin-1-yl}sulfonyl)-4-methyl-1,3-thiazol-2-yl]carbamate], the IC50 was < 10 nM.
As to `COC(=O)Nc1nc(C)c(S(=O)(=O)N2CCN(C[C@H](C)Nc3ncnc4c(-c5ccc(C)nc5C)cccc34)CC2)s1` [Example 92, methyl N-[5-({4-[(2S)-2-{[8-(2,6-dimethylpyridin-3-yl)quinazolin-4-yl]amino}propyl]piperazin-1-yl}sulfonyl)-4-methyl-1,3-thiazol-2-yl]carbamate], the IC50 was < 10 nM.
Next, `Cc1cc(-c2cc(S(=O)(=O)N3CCN(C[C@H](C)Nc4ncnc5c(-c6cccc(CN(C)C)c6)cccc45)CC3)cs2)on1` [Example 93, 8-{3-[(dimethylamino)methyl]phenyl}-N-[(2S)-1-(4-{[5-(3-methyl-1,2-oxazol-5-yl)thiophen-3-yl]sulfonyl}piperazin-1-yl)propan-2-yl]quinazolin-4-amine]: < 10 nM.
In the case of `C[C@@H](CN1CCN(S(=O)(=O)c2ccc3c(c2)sc(=O)n3C)CC1)Nc1ncnc2c(-c3cccnc3)cccc12` [Example 94, 3-methyl-6-({4-[(2S)-2-{[8-(pyridin-3-yl)quinazolin-4-yl]amino}propyl]piperazin-1-yl}sulfonyl)-2,3-dihydro-1,3-benzothiazol-2-one] it was 10 to 100 nM.

Values taken from patent US20240190860A1, “8-CYCLO-SUBSTITUTED QUINAZOLINE DERIVATIVES AS LPA RECEPTOR 2 INHIBITORS” (CHIESI FARMACEUTICI S.p.A., priority 2021, published 2024).
